The text below walks through data of patent publication US20100168231A1, “TARGET ENZYME FOR THE TREATMENT OF ACNE” (GALDERMA RESEARCH & DEVELOPMENT, priority 2007, published 2010).

Each structure is given as a SMILES string. Like-named read-outs stand apart in the source and are kept apart here.

One assay concerns the target T1, human DHRS9 (Homo sapiens, UniProt Q9BPW9).
T1 construct: expressed in transfected cells; host or cells: PALM cells (PC-3 stably co-transfected with human androgen receptor and pMMTV-neo-Luc)
Kind of assay: Cellular model of oxidation of 3α-diol by DHRS9: inhibition of 3α-diol conversion to DHT, followed via AR transactivation (luciferase reporter) in DHRS9-transfected PALM cells. It is filed as cell-based. The settings on record: read-out: inhibition of 3α-diol conversion. The text has this:
(§1) The cDNA coding for human DHRS9 was sub-cloned into a pcDNA3.1/zeo expression vector. This was then transfected into a cell line denoted PALM, standing for PC-3 Androgen receptor Luciferase MMTV. This cell line originates from PC-3 cells which have been stably co-transfected by the expression vector coding for the human androgen receptor (pSG5-puro-h androgen receptor (AR)) and by the reporter gene vector coding for luciferase (pMMTV-neo-Luc), the promoter for which has AR response elements.
(§2) The activity of conversion of 3α-diol to DHT by DHRS9 can thus be followed via AR transactivation.

For assay [1], the system named is human androgen receptor (AR). Nature of the assay: Dose-response of the 3α-diol substrate for AR transactivation in PALM cells (PC-3 Androgen receptor Luciferase MMTV). The assay is classed as cell-based.
Excerpt: as §1, §2

T1 sequence (Q9BPW9 18-319): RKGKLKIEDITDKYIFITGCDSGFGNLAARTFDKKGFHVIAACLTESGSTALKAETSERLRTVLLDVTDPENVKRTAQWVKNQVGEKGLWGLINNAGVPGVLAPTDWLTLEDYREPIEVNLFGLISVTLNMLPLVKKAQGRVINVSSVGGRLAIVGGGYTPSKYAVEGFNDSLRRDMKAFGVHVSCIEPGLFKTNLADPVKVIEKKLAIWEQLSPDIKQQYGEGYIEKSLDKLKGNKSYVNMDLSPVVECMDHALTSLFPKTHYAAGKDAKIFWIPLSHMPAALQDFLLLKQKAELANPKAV

Regarding `CC1(C)[C@@H](OC(=O)CCC(=O)O)CC[C@]2(C)[C@H]3C(=O)C=C4[C@@H]5C[C@@](C)(C(=O)O)CC[C@]5(C)CC[C@@]4(C)[C@]3(C)CC[C@@H]12` [carbenoxolone, Carbenoxolone], at human DHRS9 (concentration of 100 μM, PALM cells transfected with DHRS9), the inhibition (commonly the change of the read-out against control, counted positive when it falls) at 100 µM was 35%.

On to `CC(C)=CCCC(C)=CC=O` (racemic) [citral, Citral], for which the inhibition at 100 µM at human DHRS9 came out at 86%.

For the compound `C[C@]12CC[C@@H](O)C[C@@H]1CC[C@@H]1[C@@H]2CC[C@]2(C)[C@@H](O)CC[C@@H]12` [3α-diol, 3α-androstanediol], the half-maximal activity concentration (AC50) (usually the concentration giving half of the maximal activity seen) in assay [1] (cells transfected with DHRS9) came to 19 nM; in assay [1] (non-transfected cells) it was 189 nM.
